Test results from patent publication US11718622B2, “Heterocyclic adenosine receptor antagonists” (Exelixis, Inc., priority 2020, dated 2023).

Legend:
[1] = biological target: Adenosine A2a (ADORA2A) receptor (Homo sapiens (Human), UniProt P29274); experiment: ADORA2A Receptor Binding Assay; conditions: radioligand binding, membrane stock
Procedure, shortened: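 Test compounds incubated with A2a receptor membranes and a ³H-labelled radioligand for 2 hours at room temperature, then filtered through PEI-presoaked GF/C plates and washed. Filter-bound ³H counted by scintillation; % inhibition calculated from background-subtracted signal relative to high control.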

[2] = biological target: Adenosine A2B (ADORA2B) receptor (Homo sapiens (Human), UniProt P29275); experiment: ADORA2B Receptor Binding Assay; conditions: radioligand binding, membrane stock
Procedure, shortened: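 Radioligand competition binding on human A2B receptor membranes, 1 h at room temperature, then filtration through BSA-presoaked GF/C filters and ³H counting by scintillation. Inhibition expressed as % of high control after background subtraction.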

Adenosine A2a (ADORA2A) receptor, sequence (P29274 whole entry): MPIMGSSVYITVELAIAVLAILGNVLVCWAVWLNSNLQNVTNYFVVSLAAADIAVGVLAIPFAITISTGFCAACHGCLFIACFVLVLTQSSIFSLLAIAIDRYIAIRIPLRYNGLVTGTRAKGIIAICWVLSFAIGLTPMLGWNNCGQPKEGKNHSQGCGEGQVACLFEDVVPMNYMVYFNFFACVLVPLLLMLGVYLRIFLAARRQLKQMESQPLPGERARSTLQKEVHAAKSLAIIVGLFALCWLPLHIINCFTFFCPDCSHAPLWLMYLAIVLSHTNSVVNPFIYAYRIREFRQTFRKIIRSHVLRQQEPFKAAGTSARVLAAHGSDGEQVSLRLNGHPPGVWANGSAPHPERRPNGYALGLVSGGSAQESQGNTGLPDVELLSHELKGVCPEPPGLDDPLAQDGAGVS
Adenosine A2B (ADORA2B) receptor, sequence (P29275 whole entry): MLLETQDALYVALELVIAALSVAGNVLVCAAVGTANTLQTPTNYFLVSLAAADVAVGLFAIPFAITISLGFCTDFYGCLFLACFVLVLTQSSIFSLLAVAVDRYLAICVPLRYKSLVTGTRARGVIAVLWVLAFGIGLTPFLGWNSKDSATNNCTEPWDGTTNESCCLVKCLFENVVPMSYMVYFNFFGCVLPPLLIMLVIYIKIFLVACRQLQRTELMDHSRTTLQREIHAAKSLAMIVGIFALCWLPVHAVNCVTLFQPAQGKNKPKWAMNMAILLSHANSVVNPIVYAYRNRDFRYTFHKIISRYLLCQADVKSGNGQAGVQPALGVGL

| SMILES | IC50 [1] | IC50 [2] |
| --- | --- | --- |
| O=C(Nc1cc2nc(C3CNC3)nn2c(-c2ccco2)n1)C1CC1 [Compound 123, N-[2-(azetidin-3-yl)-5-(furan-2-yl)-[1,2,4]triazolo[1,5-c]pyrimidin-7-yl]cyclopropanecarboxamide] | 10 to 100 nM | > 1000 nM |
| CC(=O)Nc1cc2nc(C(F)(F)F)nn2c(-c2ccco2)n1 [Compound 59, N-[5-(furan-2-yl)-2-(trifluoromethyl)-[1,2,4]triazolo[1,5-c]pyrimidin-7-yl]acetamide] | < 10 nM | 10 to 100 nM |
| CC(=O)Nc1cc2nc(C3COC3)nn2c(-c2ccco2)n1 [Compound 91, N-[5-(furan-2-yl)-2-(oxetan-3-yl)-[1,2,4]triazolo[1,5-c]pyrimidin-7-yl]acetamide] | < 10 nM | 10 to 100 nM |
| O=C(Nc1cc2nc(C(F)F)nn2c(-c2ccco2)n1)C1CC1 [Compound 148, N-[2-(difluoromethyl)-5-(furan-2-yl)-[1,2,4]triazolo[1,5-c]pyrimidin-7-yl]cyclopropanecarboxamide] | < 10 nM | < 10 nM |
| CC(=O)c1cccc(-c2nc(N)cc3nc(C)nn23)c1 [Compound 95, 1-[3-(7-amino-2-methyl-[1,2,4]triazolo[1,5-c]pyrimidin-5-yl)phenyl]ethanone] | > 1000 nM | > 1000 nM |
| Cc1nc2cc(NC(=O)C3CC3)nc(-c3ccc(C(F)(F)F)o3)n2n1 [Compound 69, N-[2-methyl-5-[5-(trifluoromethyl)furan-2-yl]-[1,2,4]triazolo[1,5-c]pyrimidin-7-yl]cyclopropanecarboxamide] | < 10 nM | 10 to 100 nM |
| Cc1nc2cc(NC(=O)CF)nc(-c3ccco3)n2n1 [Compound 145, 2-fluoro-N-[5-(furan-2-yl)-2-methyl-[1,2,4]triazolo[1,5-c]pyrimidin-7-yl]acetamide] | 10 to 100 nM | 10 to 100 nM |
| CC(=O)Nc1cc2nc(C3COC3)nn2c(-c2ccc(C)o2)n1 [Compound 109, N-[5-(5-methylfuran-2-yl)-2-(oxetan-3-yl)-[1,2,4]triazolo[1,5-c]pyrimidin-7-yl]acetamide] | < 10 nM | 10 to 100 nM |
| Cc1cn2c(Cl)c(N)nc(-c3ccccc3C)c2n1 [Compound 216, 5-chloro-2-methyl-8-(2-methylphenyl)imidazo[1,2-a]pyrazin-6-amine] | > 1000 nM | > 1000 nM |
| CC(C)c1cn2cc(NC(=O)C3CC3)nc(-c3ccco3)c2n1 [Compound 212, N-[8-(furan-2-yl)-2-propan-2-ylimidazo[1,2-a]pyrazin-6-yl]cyclopropanecarboxamide] | < 10 nM | 10 to 100 nM |
| Cc1nc2cc(N)nc(-c3ccc(C)o3)n2n1 [Compound 1, 2-Methyl-5-(5-methylfuran-2-yl)-[1,2,4]triazolo[1,5-c]pyrimidin-7-amine] | < 10 nM | 10 to 100 nM |
| CC(=O)Nc1cc2nc(C)nn2c(-c2cccc(C(C)=O)c2)n1 [Compound 93, N-[5-(3-acetylphenyl)-2-methyl-[1,2,4]triazolo[1,5-c]pyrimidin-7-yl]acetamide] | > 1000 nM | > 1000 nM |
| Cc1nc2c3nc(C(F)(F)F)[nH]c3nc(-c3ccco3)n2n1 [Compound 165, 5-(furan-2-yl)-8-methyl-2-(trifluoromethyl)-3H-[1,2,4]triazolo[5,1-f]purine] | > 1000 nM | > 1000 nM |
| Cc1nc2c3cccnc3nc(-c3ccco3)n2n1 [Compound 137, 7-(furan-2-yl)-4-methyl-3,5,6,8,10-pentazatricyclo[7.4.0.0^2,6]trideca-1(9),2,4,7,10,12-hexaene] | > 1000 nM | > 1000 nM |
| Cc1nc2cc(NC(=O)C3CC3)nc(-c3ccoc3)n2n1 [Compound 73, N-[5-(furan-3-yl)-2-methyl-[1,2,4]triazolo[1,5-c]pyrimidin-7-yl]cyclopropanecarboxamide] | 10 to 100 nM | 100 to 1000 nM |
| Cc1nc2c3c(nc(-c4ccc(C)o4)n2n1)NC(=O)C3 [Compound 97, 4-methyl-7-(5-methylfuran-2-yl)-3,5,6,8,10-pentazatricyclo[7.3.0.0^2,6]dodeca-1(9),2,4,7-tetraen-11-one] | < 10 nM | 10 to 100 nM |
| Cc1nc2c(Cl)c(N)nc(-c3ccncc3)n2n1 [Compound 79, 8-chloro-2-methyl-5-pyridin-4-yl-[1,2,4]triazolo[1,5-c]pyrimidin-7-amine] | 10 to 100 nM | 100 to 1000 nM |

The next lines start with the values.

| IC50 [1] | IC50 [2] | SMILES |
| --- | --- | --- |
| > 1000 nM | > 1000 nM | CC(=O)c1cccc(-c2nc(NC(=O)OC(C)(C)C)cc3nc(C)nn23)c1 [Compound 94, tert-butyl N-[5-(3-acetylphenyl)-2-methyl-[1,2,4]triazolo[1,5-c]pyrimidin-7-yl]carbamate] |
| 10 to 100 nM | 100 to 1000 nM | Cc1cn2c(Cl)c(N)nc(-c3ccccc3)c2n1 [Compound 201, 5-chloro-2-methyl-8-phenylimidazo[1,2-a]pyrazin-6-amine] |
| 100 to 1000 nM | > 1000 nM | Cc1nc2cc(NC(=O)OC(C)(C)C)nc(-c3ccc(S(=O)(=O)O)cc3)n2n1 [Compound 124, 4-[2-methyl-7-[(2-methylpropan-2-yl)oxycarbonylamino]-[1,2,4]triazolo[1,5-c]pyrimidin-5-yl]benzenesulfonic acid] |
| < 10 nM | 10 to 100 nM | CC(C)c1nc2c(Cl)c(N)nc(-c3ccccc3)n2n1 [Compound 86, 8-chloro-5-phenyl-2-propan-2-yl-[1,2,4]triazolo[1,5-c]pyrimidin-7-amine] |
| < 10 nM | 10 to 100 nM | Cc1nc2cc(NC(=O)NCCN3CCCC3)nc(-c3ccco3)n2n1 [Compound 157, 1-[5-(furan-2-yl)-2-methyl-[1,2,4]triazolo[1,5-c]pyrimidin-7-yl]-3-(2-pyrrolidin-1-ylethyl)urea] |
| 10 to 100 nM | 10 to 100 nM | Cc1nc2c3cn[nH]c3nc(-c3ccc(C)o3)n2n1 [Compound 102, 4-methyl-7-(5-methylfuran-2-yl)-3,5,6,8,10,11-hexazatricyclo[7.3.0.0^2,6]dodeca-1(9),2,4,7,11-pentaene] |
| < 10 nM | 10 to 100 nM | Cc1nc2cc(NC(=O)NCC(C)C)nc(-c3ccco3)n2n1 [Compound 156, 1-[5-(furan-2-yl)-2-methyl-[1,2,4]triazolo[1,5-c]pyrimidin-7-yl]-3-(2-methylpropyl)urea] |
| 100 to 1000 nM | 100 to 1000 nM | Cc1cn2c(Cl)c(N)nc(-c3ccc(F)cc3)c2n1 [Compound 202, 5-chloro-8-(4-fluorophenyl)-2-methylimidazo[1,2-a]pyrazin-6-amine] |
| 100 to 1000 nM | > 1000 nM | CC(=O)Nc1cc2nc(C3CNC3)nn2c(-c2ccc(C)o2)n1 [Compound 150, N-[2-(azetidin-3-yl)-5-(5-methylfuran-2-yl)-[1,2,4]triazolo[1,5-c]pyrimidin-7-yl]acetamide] |
| < 10 nM | < 10 nM | CC(=O)Nc1cn2nc(C)nc2c(-c2ccco2)n1 [Compound 179, N-[8-(furan-2-yl)-2-methyl-[1,2,4]triazolo[1,5-a]pyrazin-6-yl]acetamide] |
| < 10 nM | < 10 nM | Cc1ccc(-c2nc3[nH]c(C(C)(C)O)cc3c3nc(C(F)(F)F)nn23)o1 [Compound 147, 2-[7-(5-methylfuran-2-yl)-4-(trifluoromethyl)-3,5,6,8,10-pentazatricyclo[7.3.0.0^2,6]dodeca-1(9),2,4,7,11-pentaen-11-yl]propan-2-ol] |
| < 10 nM | < 10 nM | Cc1ccc(-c2nc(NC(=O)C3CC3)cn3nc(Br)nc23)o1 [Compound 188, N-[2-bromo-8-(5-methylfuran-2-yl)-[1,2,4]triazolo[1,5-a]pyrazin-6-yl]cyclopropanecarboxamide] |
| 10 to 100 nM | 10 to 100 nM | Cc1nc2c(Cl)c(N)nc(-c3ccc(Cl)cc3)n2n1 [Compound 77, 8-chloro-5-(4-chlorophenyl)-2-methyl-[1,2,4]triazolo[1,5-c]pyrimidin-7-amine] |
| < 10 nM | < 10 nM | CC(=O)Nc1cc2nc(C)nn2c(-c2ccc(Br)o2)n1 [Compound 90, N-[5-(5-bromofuran-2-yl)-2-methyl-[1,2,4]triazolo[1,5-c]pyrimidin-7-yl]acetamide] |
| 100 to 1000 nM | > 1000 nM | Cc1nc2cc(NC(=O)C3CC3)nc(-c3ccc(C#N)cc3)n2n1 [Compound 56, N-[5-(4-cyanophenyl)-2-methyl-[1,2,4]triazolo[1,5-c]pyrimidin-7-yl]cyclopropanecarboxamide] |
| < 10 nM | 10 to 100 nM | Cc1nc2c(Cl)c(N)nc(-c3ccccc3)n2n1 [Compound 33, 8-chloro-2-methyl-5-phenyl-[1,2,4]triazolo[1,5-c]pyrimidin-7-amine] |
| 100 to 1000 nM | 100 to 1000 nM | Cc1cn2c(Br)c(N)nc(-c3ccccc3)c2n1 [Compound 203, 5-bromo-2-methyl-8-phenylimidazo[1,2-a]pyrazin-6-amine] |
| > 1000 nM | > 1000 nM | Cc1nc2cc(NC(=O)C3CC3)nc(-c3ccc(S(C)(=O)=O)cc3)n2n1 [Compound 99, A-[2-methyl-5-(4-methylsulfonylphenyl)-[1,2,4]triazolo[1,5-c]pyrimidin-7-yl]cyclopropanecarboxamide] |
| < 10 nM | < 10 nM | Cc1ccc(-c2nc(NC(=O)C3CC3)cn3cc(C(F)(F)F)nc23)o1 [Compound 197, N-[8-(5-methylfuran-2-yl)-2-(trifluoromethyl)imidazo[1,2-a]pyrazin-6-yl]cyclopropanecarboxamide] |
| < 10 nM | 100 to 1000 nM | Cc1nc2c(Cl)c(NC(=O)C3CC3)nc(-c3ccc(C)o3)n2n1 [Compound 15, N-[8-chloro-2-methyl-5-(5-methylfuran-2-yl)-[1,2,4]triazolo[1,5-c]pyrimidin-7-yl]cyclopropanecarboxamide] |
